pIC50: −log10 of the molar value.
The compounds below were run against PIK3CA (human) (UniProt P42336) (assay: Inhibition of PIK3CA Kinase Activity).
Chain of PIK3CA (human) (P42336 whole entry, looked up): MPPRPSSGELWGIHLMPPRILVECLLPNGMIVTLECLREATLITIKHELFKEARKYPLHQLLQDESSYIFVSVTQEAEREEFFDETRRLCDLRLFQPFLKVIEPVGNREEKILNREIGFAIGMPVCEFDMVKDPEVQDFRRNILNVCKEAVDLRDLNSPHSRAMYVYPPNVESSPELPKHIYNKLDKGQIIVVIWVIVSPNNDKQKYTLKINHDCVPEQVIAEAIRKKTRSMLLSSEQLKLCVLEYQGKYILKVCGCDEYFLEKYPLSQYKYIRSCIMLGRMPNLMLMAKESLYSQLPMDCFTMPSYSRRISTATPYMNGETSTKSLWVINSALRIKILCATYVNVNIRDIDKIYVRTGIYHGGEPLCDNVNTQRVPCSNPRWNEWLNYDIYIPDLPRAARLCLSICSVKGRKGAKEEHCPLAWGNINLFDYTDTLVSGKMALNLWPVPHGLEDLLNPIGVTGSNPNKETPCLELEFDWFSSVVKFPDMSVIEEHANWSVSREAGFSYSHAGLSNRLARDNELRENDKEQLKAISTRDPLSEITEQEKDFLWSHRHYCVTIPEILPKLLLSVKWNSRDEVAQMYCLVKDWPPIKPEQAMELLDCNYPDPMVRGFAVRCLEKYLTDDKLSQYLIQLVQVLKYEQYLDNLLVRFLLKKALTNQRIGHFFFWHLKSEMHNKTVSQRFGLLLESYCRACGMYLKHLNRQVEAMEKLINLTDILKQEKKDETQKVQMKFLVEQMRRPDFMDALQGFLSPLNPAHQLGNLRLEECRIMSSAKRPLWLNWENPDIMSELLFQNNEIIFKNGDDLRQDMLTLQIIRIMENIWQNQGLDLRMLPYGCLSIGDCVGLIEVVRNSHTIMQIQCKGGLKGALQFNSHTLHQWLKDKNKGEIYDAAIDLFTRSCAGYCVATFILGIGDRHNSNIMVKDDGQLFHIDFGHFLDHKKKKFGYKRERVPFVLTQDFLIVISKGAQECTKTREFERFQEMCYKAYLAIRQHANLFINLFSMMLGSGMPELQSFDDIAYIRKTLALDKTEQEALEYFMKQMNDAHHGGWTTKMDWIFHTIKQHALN
`Cc1nc2c(c(N3CCOc4ccc(-c5cnc(N)c(S(=O)(=O)N[C@@H]6CCN(C)C6)c5)cc4C3)n1)CC(C)(C)CC2` gave a pIC50 of 6.60 to 7.30. `CCNc1ncnc(N2CCOc3ccc(-c4cnc5nc(C)[nH]c5c4)cc3C2)c1C` was tested, and the pIC50 was 7.30 to 8.00. `COc1ccc2c(N3CCOc4ccc(-c5ccc6[nH]c(=O)[nH]c6c5)cc4C3)nc(C)nc2c1` showed a pIC50 of 6.00 to 6.60. For `COc1cc2ncnc(N3CCOc4ccc(-c5ccc6nc(C)[nH]c6c5)cc4C3)c2cc1OC`, the pIC50 was 6.60 to 7.30. Compound `C[C@H](CO)CS(=O)(=O)c1cc(-c2ccc3c(c2)CN(c2ncnc4c2CC(C)(C)CC4)CCO3)cnc1N` has a pIC50 of 7.30 to 8.00. With `CCN(CC)Cc1nc2c(c(N3CCOc4ccc(-c5cnc6nc(C)[nH]c6c5)cc4C3)n1)CC(C)(C)CC2` the pIC50 was 7.30 to 8.00. Work on `Cc1nc2ncc(-c3ccc4c(c3)CN(c3ncnc(C)c3C)CCO4)cc2[nH]1` yielded a pIC50 of 6.60 to 7.30. For `CCNc1nc2ccc(-c3ccc4c(c3)CN(c3ccnc5c(F)cccc35)CCO4)cc2[nH]1`, the pIC50 was no less than 8.00. `CCc1c(C)ncnc1N1CCOc2ccc(-c3ccc4nc(C)[nH]c4c3)cc2C1` was tested, and the pIC50 was 6.60 to 7.30. `COc1cc2c(N3CCOc4ccc(-c5ccc6nc(C)[nH]c6c5)cc4C3)ncnc2cc1OCc1ccccc1` showed a pIC50 of 6.00 to 6.60. For `Cc1nc2ccc(-c3ccc4c(c3)CN(c3nc(CO)nc(C)c3C(C)C)CCO4)cc2[nH]1`, the pIC50 was 7.30 to 8.00. Work on `Cc1nc(C)c(CC2CC2)c(N2CCOc3ccc(-c4cnc5nc(C)[nH]c5c4)cc3C2)n1` yielded a pIC50 of 7.30 to 8.00. `Cc1nc2cc(-c3ccc4c(c3)CN(c3nc(C(C)N(C)C)nc5c3CC(C)(C)CC5)CCO4)cnc2[nH]1` (centres undefined) showed a pIC50 of 7.30 to 8.00. `COC(=O)Nc1nc2ccc(-c3ccc4c(c3)CN(c3ncccc3C)CCO4)cc2[nH]1` showed a pIC50 of 6.60 to 7.30. Compound `CCN1CCc2c(ncnc2N2CCOc3ccc(-c4ccc5nc(C)[nH]c5c4)cc3C2)C1` has a pIC50 of 6.00 to 6.60. For `Cc1nc2cc(-c3ccc4c(c3)CN(c3nc(CN(C)C)nc(C)c3Cc3ccc(F)cc3)CCO4)cnc2[nH]1`, the pIC50 was no less than 8.00. Work on `Cc1nc2ccc(-c3ccc4c(c3)CN(c3ccnc5cc(C#N)ccc35)CCO4)cc2[nH]1` yielded a pIC50 of 6.60 to 7.30. `Cc1nc2ccc(-c3ccc4c(c3)CN(c3ncnc5cc(S(C)(=O)=O)ccc35)CCO4)cc2[nH]1` gave a pIC50 of 6.60 to 7.30. In the case of `CCc1c(C)nc(CN(C)C)nc1N1CCOc2ccc(-c3cnc4sc(N)nc4c3)cc2C1`, the pIC50 was no less than 8.00. `CC1(C)CCc2ncnc(N3CCOc4ccc(-c5cnc(N)c(S(=O)(=O)NC6CNC6)c5)cc4C3)c2C1` gave a pIC50 of 7.30 to 8.00. Compound `Cc1nc(CN(C)C)nc(N2CCOc3ccc(-c4ccc5[nH]c(CF)nc5c4)cc3C2)c1C(C)C` has a pIC50 of no less than 8.00. `Cc1nc2ncc(-c3ccc4c(c3)CN(c3ncnc5c3CCC(C)C5)CCO4)cc2[nH]1` (centres undefined) showed a pIC50 of 7.30 to 8.00. Work on `Cc1nc2ncc(-c3ccc4c(c3)CN(c3nc(CNS(C)(=O)=O)nc5c3CC(C)(C)CC5)CCO4)cc2[nH]1` yielded a pIC50 of no less than 8.00. Work on `CC1(C)CCc2ncnc(N3CCOc4ccc(-c5cnc(N)c(S(=O)(=O)O)c5)cc4C3)c2C1` yielded a pIC50 of 6.60 to 7.30. In the case of `Cc1nc2ccc(-c3ccc4c(c3)CN(c3ncnc5scc(C)c35)CCO4)cc2[nH]1`, the pIC50 was 6.00 to 6.60. For `COc1ccc2c(N3CCOc4ccc(-c5ccc6[nH]ncc6c5)cc4C3)nc(C)nc2c1`, the pIC50 was 6.00 to 6.60. `Cc1nc2ccc(-c3ccc4c(c3)CN(c3nc(CNC5CC5)nc5c3CC(C)(C)CC5)CCO4)cc2[nH]1` gave a pIC50 of 7.30 to 8.00. For `COc1ccc(-c2ccc3c(c2)CN(c2nc(CN(C)C)nc4c2CC(C)(C)CC4)CCO3)cc1S(C)(=O)=O`, the pIC50 was 7.30 to 8.00. `Cc1nc2ccc(-c3ccc4c(c3)CN(c3ncnc(C)c3Cc3ccc(C(F)(F)F)cc3)CCO4)cc2[nH]1` was tested, and the pIC50 was 7.30 to 8.00. `Cc1ncnc(N2CCOc3ccc(-c4cnc(N)cn4)cc3C2)c1Cc1ccc(F)cc1` gave a pIC50 of 6.00 to 6.60. Work on `Cc1nc2ccc(-c3ccc4c(c3)CN(c3nccc5ccccc35)CCO4)cc2[nH]1` yielded a pIC50 of 6.60 to 7.30. `CC(C)(CO)CNS(=O)(=O)c1cc(-c2ccc3c(c2)CN(c2ncnc4c2CC(C)(C)CC4)CCO3)cnc1N` showed a pIC50 of 6.60 to 7.30. For `CCNc1nc2ccc(-c3ccc4c(c3)CN(c3nc(C)nc5cc(O)ccc35)CCO4)cc2[nH]1`, the pIC50 was no less than 8.00. `O=C(CCCN1CCCCC1)Nc1nc2ccc(-c3ccc4c(c3)CN(c3ccnc5ccccc35)CCO4)cc2[nH]1` showed a pIC50 of 6.60 to 7.30. `Cc1nc2ccc(-c3ccc4c(c3)CN(c3ncnc5c3CCCC5)CCO4)cc2[nH]1` gave a pIC50 of 6.60 to 7.30. Work on `COCc1nc2ccc(-c3ccc4c(c3)CN(c3ccnc5ccccc35)CCO4)cc2[nH]1` yielded a pIC50 of 6.00 to 6.60. Compound `COCCc1c(C)nc(CN(C)C)nc1N1CCOc2ccc(-c3ccc4nc(C)[nH]c4c3)cc2C1` has a pIC50 of no less than 8.00. Compound `CCNc1nc2ccc(-c3ccc4c(c3)CN(c3ncnc(Nc5ccc(OC)cc5)c3C)CCO4)cc2[nH]1` has a pIC50 of 7.30 to 8.00. Work on `Cc1nc2ncc(-c3ccc4c(c3)CN(c3nc(CN5CCOCC5)nc5c3CC(C)(C)CC5)CCO4)cc2[nH]1` yielded a pIC50 of 7.30 to 8.00. `CC[C@H]1CCc2c(ncnc2N2CCOc3ccc(-c4cnc(N)c(S(=O)(=O)N5CC[C@@H](N)C5)c4)cc3C2)C1` showed a pIC50 of 7.30 to 8.00. `CC(CO)NS(=O)(=O)c1cc(-c2ccc3c(c2)CN(c2ncnc4c2CC(C)(C)CC4)CCO3)cnc1N` (centres undefined) was tested, and the pIC50 was no less than 8.00. `CN(C)Cc1nc2ncc(-c3ccc4c(c3)CN(c3ncnc5c3CC(C)(C)CC5)CCO4)cc2[nH]1` was tested, and the pIC50 was 6.00 to 6.60. Compound `COCCNCc1nc2c(c(N3CCOc4ccc(-c5cnc6nc(C)[nH]c6c5)cc4C3)n1)CC(C)(C)CC2` has a pIC50 of 7.30 to 8.00. Compound `Cc1ncnc(N2CCOc3ccc(-c4ccc5[nH]nc(N)c5c4)cc3C2)c1Cc1ccc(F)cc1` has a pIC50 of 6.60 to 7.30.

Reference: the Kinase Knowledgebase extract (Sharma et al. 2016)
